Assay [1] concerns the target T1, CgPK (Magallana gigas, UniProt Z9A5V8HWU5).
T1 construct: full-length CDS in pET-32a, 6xHis tags at N- and C-ends, expressed in E. coli; captured on CM5 chip by anti-His antibody
Nature of the assay: SPR (BIAcore T200, CM5 chip, anti-His capture), […] Langmuir fit. Type of assay: binding. As to conditions: PBS-P+ analyte buffer, running buffer HBS-EP+ pH 7.5, mimics dephosphorylation.

Assay [2] has as its target T1, CgPK. Described as above. Type of assay: binding. To be noted: PBS-P+ analyte buffer, running buffer HBS-EP+ pH 7.5, recombinant from E. coli.

As a reminder, the Kd is the equilibrium constant for the complex coming apart.

On to `Nc1ncnc2c1ncn2[C@@H]1O[C@H](COP(=O)(O)OP(=O)(O)O)[C@@H](O)[C@H]1O` [ADP], for which the dissociation constant (Kd) came out at 0.0725 µM at CgPK [1] (ADP 1.25-10 uM) and 0.0417 µM on CgPK [2] (ADP 1.25-10 uM).
With `C=C(OP(=O)(O)O)C(=O)O` [PEP], the Kd at CgPK [1] (PEP 100-1600 nM) came out at 0.0934 µM; at CgPK [2] (PEP 100-1600 nM), 0.00975 µM.

Source of the values: publication PMC11269933, “MAPK/ERK-PK(Ser11) pathway regulates divergent thermal metabolism of two congeneric oyster species” (iScience, 2024).
